Test results as given in PubChem BioAssay (NCI).
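Five concentrations, 48 hours, 96-well plates. Definition used: TGI = concentration required for complete inhibition of growth.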

Columns and labels:
Assay in all cases: inhibition of tumour cell growth, NCI panel, 48 h
CCRF-CEM leukemia = tested on: CCRF-CEM leukemia
K-562 leukemia = tested on: K-562 leukemia
OVCAR-8 ovarian = tested on: OVCAR-8 ovarian
786-0 renal = tested on: 786-0 renal
NCI-H23 lung = tested on: NCI-H23 lung
RPMI-8226 leukemia = tested on: RPMI-8226 leukemia
MDA-MB-435 = tested on: MDA-MB-435
UO-31 renal = tested on: UO-31 renal
UACC-62 melanoma = tested on: UACC-62 melanoma
TK-10 renal = tested on: TK-10 renal
OVCAR-3 ovarian = tested on: OVCAR-3 ovarian
UACC-257 melanoma = tested on: UACC-257 melanoma
MALME-3M melanoma = tested on: MALME-3M melanoma
KM12 colon = tested on: KM12 colon
NCI-H522 lung = tested on: NCI-H522 lung
SF-539 CNS = tested on: SF-539 CNS
HS 578T breast = tested on: HS 578T breast

Structure (SMILES) | TGI (CCRF-CEM leukemia) | TGI (K-562 leukemia) | TGI (OVCAR-8 ovarian) | TGI (786-0 renal) | TGI (NCI-H23 lung) | TGI (RPMI-8226 leukemia) | TGI (MDA-MB-435) | TGI (UO-31 renal) | TGI (UACC-62 melanoma) | TGI (TK-10 renal) | TGI (OVCAR-3 ovarian) | TGI (UACC-257 melanoma) | TGI (MALME-3M melanoma) | TGI (KM12 colon) | TGI (NCI-H522 lung) | TGI (SF-539 CNS) | TGI (HS 578T breast)
CCCCC(O)(c1ccccc1)C(O)(c1ccccc1)c1c(F)c(F)c(F)c(F)c1F (stereo not given) | 88.7 µM | 82.4 µM | 55.5 µM | 39.4 µM | > 100 µM | 45.6 µM | > 100 µM | 88.4 µM | 39.2 µM | 84.8 µM | 32.6 µM | 49.1 µM | 32.6 µM |  |  |  | 
Cc1cc(O)c2c(c1)C(C1OC(CO)C(O)C(O)C1O)c1cc(O)cc(O)c1C2=O (stereo not given) | > 100 µM | > 100 µM | > 100 µM | > 100 µM | > 100 µM | > 100 µM | > 100 µM | > 100 µM | > 100 µM | > 100 µM | > 100 µM | > 100 µM | > 100 µM |  |  |  | 
CCOc1ccc(N2C(=O)NC3(c4ccccc4)N(C)C(=O)N(C)C23c2ccccc2)cc1 (stereo not given) | > 100 µM | > 100 µM | > 100 µM | > 100 µM | > 100 µM | > 100 µM | > 100 µM | > 100 µM | > 100 µM |  | > 100 µM | > 100 µM | > 100 µM | > 100 µM | > 100 µM | > 100 µM | 
COc1ccc(Cc2cc(OC)c(OC)c(OC)c2)cc1 | 16.9 µM | 22 µM | 27 µM | > 100 µM | 15.3 µM | 39.1 µM | > 100 µM | 90.5 µM | > 100 µM | > 100 µM | 0.424 µM | > 71.8 µM | > 100 µM | > 100 µM | 0.798 µM | 1.76 µM | 
O=C1C[C@@H]2[C@@H](CCC23CCCC3)N1 | > 100 µM | > 100 µM | > 100 µM | > 100 µM | > 100 µM | > 100 µM |  | > 100 µM | > 100 µM | > 100 µM | > 100 µM | > 100 µM | > 100 µM | > 100 µM | > 100 µM | > 100 µM | 
CN1C(=S)CSc2ccccc21 | > 100 µM | > 100 µM | > 100 µM | > 100 µM | > 100 µM | > 100 µM |  | > 100 µM |  | > 100 µM | > 100 µM | > 100 µM | > 100 µM | > 100 µM | > 100 µM | > 100 µM | 
O=C1N=CN=C2C=CC(Cl)=C(I)C12 (stereo not given) | > 100 µM | > 100 µM | > 100 µM | > 100 µM | > 100 µM | > 100 µM |  | 65.7 µM | > 100 µM | > 100 µM | > 100 µM | > 100 µM | > 100 µM | > 100 µM |  |  | 
CC(C)COC(=O)c1ccc(N=Cc2ccc(C=Nc3ccc(C(=O)OCC(C)C)cc3)cc2)cc1 |  | > 100 µM | > 100 µM | > 100 µM | > 100 µM | > 100 µM |  | > 100 µM | > 100 µM | > 100 µM | > 100 µM | > 100 µM | > 100 µM | > 100 µM | > 100 µM | > 100 µM | 
CSCCC(NC(=O)Cc1ccc(C(=O)c2ccccc2)cc1)C(=O)N1CCN(CCCCN2c3ccccc3Sc3cc(N=[N+]=[N-])ccc32)CC1 (stereo not given) | > 100 µM | > 100 µM |  | > 100 µM | > 100 µM | > 100 µM |  | > 100 µM | > 100 µM | > 100 µM | > 100 µM | > 100 µM | > 100 µM | > 100 µM | > 100 µM |  | 
CC1OC(OC2C(OC(=O)[C@]34CCC(C)(C)CC3C3=CCC5[C@@]6(C)C[C@H](O)[C@H](OC7OC(COC8OC(CO)C(O)C(O)C8O)C(O)C(O)C7O)[C@@](C)(C(=O)O)C6CC[C@@]5(C)C3(C)CC4)OCC(O)C2O)C(O)C(O)C1OC1OCC(O)C(O)C1O (stereo not given in full) | > 100 µM | > 100 µM | > 100 µM | > 100 µM | > 100 µM | > 100 µM |  | > 100 µM | > 100 µM | > 100 µM | > 100 µM | > 100 µM | > 100 µM | > 100 µM | > 100 µM | > 100 µM | 
O=C(CSc1nnc(Cc2ccccc2)o1)Nc1ccc(Cl)cc1[N+](=O)[O-] | 54.4 µM | 98.7 µM | > 100 µM | 31 µM | 36 µM | 49.6 µM |  | 49.4 µM | 30.5 µM | 30.8 µM |  | 36.3 µM | 30.2 µM |  | 9.26 µM |  | 
Cc1ccc(C(=O)C(c2nc3n(c2O)C(=N)N=N3)c2nc3n(c2O)C(=N)N=N3)cc1 (stereo not given) | > 100 µM | > 100 µM | > 100 µM | > 100 µM | > 100 µM | > 100 µM |  | > 100 µM | > 100 µM | > 100 µM | > 100 µM | > 100 µM | > 100 µM | > 100 µM | > 100 µM | > 100 µM | 
O=S1(=O)OCCOS(=O)(=O)C1(Cl)Cl | > 100 µM | > 100 µM | > 100 µM | > 100 µM | > 100 µM | > 100 µM |  | > 100 µM | > 100 µM | > 100 µM | > 100 µM | > 100 µM | > 100 µM | > 100 µM | > 100 µM | > 100 µM | 
COc1cccc(N2C(=O)/C(=C/c3ccc(N(CCC#N)CCC#N)cc3)N=C2c2cc([N+](=O)[O-])ccc2Cl)c1 | > 100 µM | > 100 µM | > 100 µM | > 100 µM | > 100 µM | > 100 µM |  | > 100 µM | > 100 µM |  | > 100 µM | > 100 µM | > 100 µM | > 100 µM | > 100 µM | > 100 µM | 
COC(=O)CN=C1NC(=S)N(Cc2ccc(OC)cc2)C12CCCC2 | > 100 µM | > 100 µM | > 100 µM | > 100 µM | > 100 µM | > 100 µM | > 100 µM | > 100 µM | > 100 µM |  | > 100 µM | > 100 µM | > 100 µM | > 100 µM | > 100 µM | > 100 µM | 
C=CCOC1CC(n2cnc3c(N)ncnc32)OC1CO (stereo not given) | > 100 µM | > 100 µM | > 100 µM | > 100 µM | > 100 µM | > 100 µM |  | > 100 µM | > 100 µM | > 100 µM | > 100 µM | > 100 µM | > 100 µM | > 100 µM | > 100 µM | > 100 µM | 
COC(=O)C1CC(c2ccc(Cl)cc2)=NO1 (stereo not given) | > 100 µM | > 100 µM | > 100 µM | > 100 µM | > 100 µM | > 100 µM |  | > 100 µM | > 100 µM | > 100 µM | > 100 µM | > 100 µM | > 100 µM | > 100 µM | > 100 µM | > 100 µM | 
CC(=O)NNc1nc(C)c(C(/C=C/c2ccc(Cl)cc2)=N\N=C(N)N)s1 | > 100 µM | > 100 µM | > 100 µM | > 100 µM | > 100 µM | > 100 µM |  | > 100 µM | > 100 µM | > 100 µM | > 100 µM | > 100 µM | > 100 µM | > 100 µM | > 100 µM | > 100 µM | 
Cc1ccc(NC(=O)CCc2nnc3s/c(=C\c4cccc([N+](=O)[O-])c4)c(=O)n23)cc1 | > 100 µM | > 100 µM | > 100 µM | > 100 µM | > 100 µM | > 100 µM |  | > 100 µM | > 100 µM | > 100 µM | > 100 µM | > 100 µM | > 100 µM | > 100 µM | > 100 µM | > 100 µM | 
O=C(CC(=O)N1N=C(n2ccc3ccccc32)CC1c1ccccc1)Nc1ccc(Cl)cc1 (stereo not given) | > 100 µM | > 100 µM | > 100 µM | > 100 µM | > 100 µM | > 100 µM |  | > 100 µM | > 100 µM | > 100 µM | > 100 µM | > 100 µM | > 100 µM | > 100 µM | > 100 µM | > 100 µM | 
Cc1cc(N(CCC#N)CCC#N)ccc1/C=C1N=C(/C=C/c2ccccc2)N(c2ccc(S(N)(=O)=O)cc2)C\1=O | > 100 µM | > 100 µM | > 100 µM | > 100 µM | > 100 µM | > 100 µM |  | > 100 µM | > 100 µM | > 100 µM | > 100 µM | > 100 µM | > 100 µM | > 100 µM | > 100 µM | > 100 µM | 
Cc1ccc(C(=O)O)c(/C=C2\Cc3cc(C)cc(C)c3C2=O)c1 | > 100 µM | > 100 µM | > 100 µM | > 100 µM |  | > 100 µM |  | > 100 µM | > 100 µM | > 100 µM | > 100 µM | > 100 µM | > 100 µM | > 100 µM | > 100 µM | > 100 µM | > 100 µM
Cc1cn(CC2=NC3CCCCC3N2)c(=O)[nH]c1=O (stereo not given) | > 100 µM | > 100 µM | > 100 µM | > 100 µM | > 100 µM | > 100 µM |  | > 100 µM | > 100 µM | > 100 µM |  | > 100 µM | > 100 µM |  | > 100 µM |  | > 100 µM
